Laboratory results published in patent publication US8895738B2, “Mesoionic pyrido [1, 2-A] pyrimidine pesticides” (E I du Pont de Nemours and Company, priority 2010, dated 2014).
Counter-ions that a name gives are not always drawn.

Assays:
Format in all cases: in vivo
[1] = tested on: cotton melon aphid (Aphis gossypii); assay: Test C: control of cotton melon aphid on cotton plant, contact and/or systemic
Description: For evaluating control of cotton melon aphid (Aphis gossypii) through contact and/or systemic means, the test unit consisted of a small open container with a 6-7-day-old cotton plant inside. This was pre-infested with 30-40 insects on a piece of leaf according to the cut-leaf method described for Test B, and the soil of the test unit was covered with a layer of sand.
Test compounds were formulated and sprayed at 250 and/or 50 ppm as described for Test B. The applications were replicated three times. After spraying, the test units were maintained in a growth chamber and then visually rated as described for […].

[2] = tested on: rice green leafhopper (Nephotettix virescens); assay: Test G: control of rice green leafhopper on rice plant; conditions: 120 h, assessed after 5 days, read-out: control efficacy: mortality
Procedure: For evaluating control of rice green leafhopper (Nephotettix virescens) through contact and/or systemic means, the test unit consisted of a plastic pot containing a 13-cm-tall rice plant covered with steel wire mesh (50 mesh) supported by a wire frame. A small amount of sand was added to form a good seal between the bottom of the wire mesh, the soil surface and the top edge of the plastic pot.
Test compounds were formulated and sprayed at 50, 10 and/or 2 ppm, and the tests were replicated three times in a manner similar to the one described for Test A. After spraying, the test units were allowed to dry for 2 h before they were post-infested with 10 green leafhoppers (3rd instar nymphs, 7-9 days post-hatch). After 5 days, each test unit was visually assessed for insect mortality.

[3] = tested on: Rice plants (indica cultivar ‘JAYA’); assay: Test K: vigor, height and panicle length of rice crop outdoors, Gujarat; conditions: for crop vigor (visual rating, 0 to 200% scale, untreated = 100%): 32 days after application, Nilaparvata lugens level moderate; for average height of rice plants / average panicle length of rice plants: 45 days after application; for average height of rice plants: untreated 0.78 m; for average panicle length of rice plants: untreated 22.4 cm
Procedure: (§1) To evaluate the effect of application of a compound of the invention on the vigor of rice crops grown under outdoor conditions, Tests 1 through 0 were conducted. “a.i.” refers to the amount of active ingredient applied.
Rice plants (indica cultivar ‘JAYA’) were transplanted into flooded 6 m×5 m test plots of clay loam soil under shade cloth in the State of Gujarat, India during the hot season before monsoon arrival, and grown using local agronomic practices. Accordingly, after 44 days from transplanting, all rice plants in this test were sprayed with an aqueous mixture containing 30 g a.i./ha of cypermethrin and 100 g a.i./ha of picoxystrobin. After 53 days from transplanting, aqueous mixtures of Compound 3 were applied to the foliage of the rice plants at 6.25, 12.5, 25 or 50 g a.i./ha in a spray volume of 500 L/ha using a backpack sprayer. Plots of unsprayed rice plants were used as controls. Each treatment and control was replicated three times, and the plots were arranged in a randomized complete block design. At the time of application of Compound 3, the pest level of rice brown planthopper (Nilaparvata lugens) was moderate, but still above the level considered economically significant.
At 45 days after application, the height and panicle length of the rice plants were measured. Plant height was determined by measuring length from vertically extended longest leaf tip to soil surface. Panicle length was measured similarly. The average height of rice plants treated with 6.25, 12.5, 25 and 50 g a.i./ha of Compound 3 was 0.94, 0.92, 0.92 and 0.99 m, respectively, compared to 0.78 m for untreated control plants. The average panicle length of rice plants treated with 6.25, 12.5, 25 and 50 g a.i./ha of Compound 3 was 23.8, 23.7, 24.9 and 24.6 cm, respectively, compared to 22.4 cm for untreated control plants.

[4] = tested on: Rice plants (indica cultivar ‘Swarna’); assay: Test N: harvest yield of rice crop outdoors, two foliar applications, Bargarh; conditions: applied twice, Nilaparvata lugens level high, controls 620 kg/ha
Procedure: as §1
Rice plants (indica cultivar ‘Swarna’) were transplanted into flooded 4 m×3 m test plots of clay loam soil in the Bargarh district, Orissa, India, during the rainy season, and grown using local agronomic practices. After 70 days, aqueous mixtures of Compound 3 were applied to the foliage of the rice plants at 12.5, 25 or 50 g a.i./ha in a spray volume of 400 L/ha using a backpack sprayer. Plots of unsprayed rice plants were used as controls. Each treatment and control was replicated three times, and the plots were arranged in a randomized complete block design. At the time of application of Compound 3, the pest level of rice brown planthopper (Nilaparvata lugens) was high, i.e. much above the level considered economically significant. 14 days after the first treatment, the foliar applications of aqueous mixtures of Compound 3 were repeated at the same application rates in a spray volume of 400 L/ha.
Harvest yields from the crops treated with 12.5, 25 and 50 g a.i./ha of Compound 3 were 3190, 3660 and 4220 kg/ha, respectively, compared to 620 kg/ha from the untreated controls.

O=c1c(-c2cccc(C(F)(F)F)c2)c([O-])[n+](Cc2cncnc2)c2ccccn12 [Compound 3, 2-hydroxy-4-oxo-1-(5-pyrimidinylmethyl)-3-[3-(trifluoromethyl)phenyl]-4H-pyrido[1,2-a]pyrimidinium inner salt]
mortality at 50 ppm ([1]; sprayed at 50 ppm): ≥ 80% | mortality at 250 ppm ([1]; sprayed at 250 ppm): ≥ 80% | mortality at 2 ppm ([2]; sprayed at 2 ppm): ≥ 80% | mortality at 10 ppm ([2]; sprayed at 10 ppm): ≥ 80% | mortality at 50 ppm ([2]; sprayed at 50 ppm): ≥ 80% | crop vigor (visual rating, 0 to 200% scale, untreated = 100%) ([3]; 6.25 g a.i./ha foliar): 115% | average height of rice plants ([3]; 6.25 g a.i./ha): 0.94 m | average panicle length of rice plants ([3]; 6.25 g a.i./ha): 23.8 cm | crop vigor (visual rating, 0 to 200% scale, untreated = 100%) ([3]; 12.5 g a.i./ha foliar): 113% | average height of rice plants ([3]; 12.5 g a.i./ha): 0.92 m | average panicle length of rice plants ([3]; 12.5 g a.i./ha): 23.7 cm | crop vigor (visual rating, 0 to 200% scale, untreated = 100%) ([3]; 25 g a.i./ha foliar): 122% | average height of rice plants ([3]; 25 g a.i./ha): 0.92 m | average panicle length of rice plants ([3]; 25 g a.i./ha): 24.9 cm | crop vigor (visual rating, 0 to 200% scale, untreated = 100%) ([3]; 50 g a.i./ha foliar): 115% | average height of rice plants ([3]; 50 g a.i./ha): 0.99 m | average panicle length of rice plants ([3]; 50 g a.i./ha): 24.6 cm | harvest yield ([4]; 12.5 g a.i./ha foliar): 3190 kg/ha | harvest yield ([4]; 25 g a.i./ha foliar): 3660 kg/ha | harvest yield ([4]; 50 g a.i./ha foliar): 4220 kg/ha
